Biological target: T1, Proteus mirabilis lipase (PML) (Proteus mirabilis, UniProt B4EVM3)
T1 construct: gene PMI0999; N-terminal hexahistidine tag (pET28a, plasmid pTK05), expressed in E. coli BL21Gold(DE3), Ni-NTA purified, tag removal not described
Assay: X-ray crystal structure, […] A
Assay type: binding
Conditions: covalent; diethyl adduct on Ser79 O-gamma; treated with 2 mM paraoxon, 0.6% Triton X100, 18 h, 25 °C, pH 7.5

T1 sequence (B4EVM3 entry or part of it): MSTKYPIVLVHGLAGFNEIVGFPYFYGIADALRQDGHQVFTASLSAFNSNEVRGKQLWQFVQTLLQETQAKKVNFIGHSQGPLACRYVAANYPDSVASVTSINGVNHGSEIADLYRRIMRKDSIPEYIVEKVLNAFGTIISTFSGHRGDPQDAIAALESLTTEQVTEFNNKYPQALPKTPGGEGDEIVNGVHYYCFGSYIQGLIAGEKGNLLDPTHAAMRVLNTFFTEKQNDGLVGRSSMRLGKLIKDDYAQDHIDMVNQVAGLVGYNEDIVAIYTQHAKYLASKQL

CCOP(=O)(OCC)Oc1ccc([N+](=O)[O-])cc1 [DEP, paraoxon]
X-ray crystal structure, 2.2 A: the small phosphonate inhibitor is covalently bound to the Oγ of S79
